Test results published in patent US9359363B2, “Identification of compounds that disperse TDP-43 inclusions” (priority 2011, dated 2016).
Like-named read-outs stand apart in the source and are kept apart here.

Tests used:
[1] = tested on: TDP-43 inclusions in PC12 cells expressing WT TDP-43::GFP; experiment: High-throughput screen for inhibition of TDP-43 inclusion formation in inducible TDP-43::GFP PC12 cells (IN Cell Analyzer); details: read-out: Inhibition of TDP-43 Inclusion Formation EC50
Description: We generated a Tet-Off inducible PC12 cell line (Clontech; the parent line stably expresses high levels of the Tetracycline binding protein) that is stably transfected with a WT TDP-43::GFP (where the GFP is at the C-terminus). […] The high-throughput screen used the arsenite (50 μM, 18 hrs) treatment protocol, where arsenite was added 1 hr after the test compounds.
We used the automated GE IN Cell Analyzer 1000 microscope system for high throughput analyses. Test chemicals were added to the cells 48 hrs after induction of TDP-43 (by removal of doxycycline). After another 24 hrs, the cells were fixed and double-stained with DAPI (to detect nuclei). Inclusions present in a collar around the nucleus but not fully co-localized with the DAPI stain (FIG. 1) were identified by the IN-Cell analyzer as inclusions. The computer counted the number of cells (based on DAPI-positive nuclei), TDP-43 levels and inclusions per field. The counts from 6 different fields within a well were averaged to develop a measure of the mean number of inclusions per field. This was repeated for every well in a 384 well plate and every plate in the library.
PC12 cells are grown in DMEM, 10% NBS/Pen-Strep, 100 μg/ml hygromycin, 50 μM puromycin and 50 μg/ml doxycycline (the latter is removed for TDP-43 induction).

[2] = tested on: non-transgenic N2 C. elegans; experiment: Motor function in non-transgenic N2 C. elegans; format: in vivo; details: non-transgenic N2 line; FIG. 19 varying doses, FIG. 21 34.8 μM
[3] = tested on: C. elegans expressing human WT TDP-43 (CK405); experiment: Motor function in C. elegans expressing human WT TDP-43; format: in vivo; details: transgenic TDP-43 nematodes, line not specified
Description: Determining whether compounds delay deterioration of motor function in C. elegans expressing TDP-43 in C. elegans: C. elegans is generally used as a simple in vivo model of disease bridging the gap between in vitro studies and in vivo studies in rodents (J Biol Chem, 2005. 280: 42655-68; J Neurosci, 2009. 29: 9210-8; Neurodegener Dis, 2010. 7: 68-75; each herein incorporated by reference in its entirety). Accordingly, C. elegans lines expressing TDP-43 (WT, G294A and A315T), obtained from Brian Kraemer, can be used to determine whether the indentified compounds ameliorate motor dysfunction associated with TDP-43 expression (J Neurosci, 2010. 30: 16208-19; herein incorporated by reference in its entirety). […] Movement and survival are calculated at adult days 1, 3 and 5, using methods described in the art (see, e.g., J. Neurosci. 2010 December 1, 30(48):16208-19; IEEE Trans Biomed Eng. 2004 October 51(10):1811-20, each herein incorporated by reference in its entirety).
In one example, eggs (C. elegans expressing A315T TDP-43, line CK426) were plated on agar containing the test compound. On day 4, movement of C. elegans was quantified and moved to plates with fresh compounds. On day 5, movement of C. elegans was again quantified. […]

[4] = tested on: mutant TDP-43 inclusions in human BE-M17 neuroblastoma cells; experiment: Arsenite-induced TDP-43 inclusion formation in BE-M17 cells; format: cell-based; details: arsenite 0.5 mM, 1 hr, 10 μg/ml
Description: The inventors transfected human BE-M17 neuroblastoma cells with WT TDP-43, TDP-4386-414 or TDP-43216-414 constructs N-terminally tagged with GFP. Full length WT TDP-43 localized to the nucleus under basal conditions (FIG. 15, WT TDP-43 shown). To investigate TDP-43 aggregation under the stressful conditions, cells were exposed to arsenite, an agent classically used to induce SGs (Biochem Soc Trans, 2002, 30, 963-9; J Cell Biol, 2000, 151, 1257-68; J Cell Biol, 1999, 147, 1431-42; each herein incorporated by reference in its entirety). Arsenite causes stress through multiple mechanisms (Toxicol Appl Pharmacol, 2001, 177, 132-48; herein incorporaed by reference in its entirety). Arsenite directly induces oxidative stress by reacting with oxygen in a reaction similar to the Fenton reaction, and arsenite also uses up glutathione, which causes further oxidative stress (Toxicol Appl Pharmacol, 2001, 177, 132-48; herein incorporaed by reference in its entirety). Upon exposure to arsenite (1 hr) WT TDP-43 remained largely nuclear, but a small amount translocated to the cytoplasm where it formed inclusions (FIG. 15A, right panels, arrows). To determine whether the inclusions co-localized with SGs, we co-labeled the cells with antibodies to SG markers, including TIA-1, eIF3 and poly-A binding protein (PABP) (FIG. 15). […] Co-localization with other SG markers is also observed. […]

[5] = PC12 TDP-43::GFP cells, arsenite 50 μM, 18 hrs, representative values

Row | Molecule | EC50 [1, 5] | further results
1 | CC(C)(C)c1ccc(S(=O)(=O)Nc2ccc(SCc3nc(OCC(F)(F)F)cc(OCC(F)(F)F)n3)cc2)cc1 [Compound 2-1] | 0.152 µM | 
2 | C#CCNCC1(c2ccccc2)CCN(CCCCOC(c2ccc(F)cc2)c2ccc(F)cc2)CC1 [Compound 2-2] | 0.29 µM | 
3 | OC1(c2ccccc2)CCN(CCCCOC(c2ccc(F)cc2)c2ccc(F)cc2)CC1 [Compound 2-3] | 1.92 µM | 
4 | Cc1ccc2ncnc(Nc3cccc(Cl)c3)c2c1 [Compound 2-4] | 0.01 µM | 
5 | Cc1cc2cc(CCNS(=O)(=O)c3ccc(Cl)cc3)c(=O)[nH]c2cc1C [Compound 2-5] | 1.29 µM | 
6 | COCc1ccc(C(=O)NC(CC(C)C)c2nnc3n2CCN(Cc2cc4ccccc4o2)CC3)o1 (stereo not drawn) [Compound 2-7] | 0.011 µM | 
7 | COc1cccc(CN2CCN(C(=O)c3cc4ccccc4[nH]3)CCC2=O)c1 [Compound 2-8] | 0.18 µM | 
8 | CCN(CC1CCCN(CCc2ccccc2OC)C1)C(=O)c1cc2ccccc2[nH]1 (stereo not drawn) [Compound 2] | 0.074 µM | 
9 | COc1cc(NC(=O)CCC2CCCN(Cc3ccc(F)c(OC)c3)C2)cc(OC)c1 (stereo not drawn) [Compound 3] | 0.039 µM | 
10 | COc1ccccc1OCC(=O)NC1CCCN(c2ccc(C(F)(F)F)cn2)C1 (stereo not drawn) [Compound 4] | 0.098 µM | 
11 | COc1ccc(C2C(C(=O)Nc3ccccc3OC)=C(C)Nc3nc4ccccc4n32)cc1 (stereo not drawn) [Compound 5] | 0.306 µM | 
12 | COc1ccc(NC(=O)C(Cc2ccccc2)NS(=O)(=O)c2cccc3cccnc23)cc1 (stereo not drawn) [Compound 6] | 0.015 µM | 
13 | CCc1ccc(NC(=O)C(Cc2ccccc2)NS(=O)(=O)c2cccc3cccnc23)cc1 (stereo not drawn) [Compound 7] | 0.139 µM | motor function [2]: improves motor function; motor function [3]: improves motor function
14 | COc1c(C)c2c(c(O)c1C/C=C(\C)CCC(=O)O)C(=O)OC2 [Mycophenolic acid, reference compound] |  | EC50 ([1]; Rattus norvegicus, PC-12, 18 h): 1.5 µM
15 | C[C@@H]1C[C@@H]([C@H](O)CC2CC(=O)NC(=O)C2)C(=O)[C@@H](C)C1 [cycloheximide] |  | formation of inclusions composed of mutant TDP-43 constructs [4]: reversible
16 | Mithramycin A [reference compound] | 2 µM | 
